The values that follow come from the supplement of paper PMC8967900.

Among the test systems are COG-LL-332h; MHH-CALL-3; PEER.
What all share (assay): selective drug sensitivity score (sDSS, relative to normal bone marrow) (sDSS (score)); higher = more potent and effective on the cell line relative to normal bone marrow cells
Holding throughout (conditions): 72 h
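Further: ALL cell lines in 384-well plates, five doses spanning 10,000-fold, each plate scaled between vehicle and 100 µmol/L benzalkonium chloride controls, sDSS an adapted area-under-curve metric.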

As to `CO[C@H]1C(=O)[C@]2(C)[C@@H](OC)C[C@H]3OC[C@@]3(OC(C)=O)[C@H]2[C@H](OC(=O)c2ccccc2)[C@]2(O)C[C@H](OC(=O)[C@H](O)[C@@H](NC(=O)OC(C)(C)C)c3ccccc3)C(C)=C1C2(C)C` [Cabazitaxel] (top concentration 1000 nM), the figures for the “selective drug sensitivity score” value in the assay with COG-LL-332h, with MHH-CALL-3 and with PEER were 22.1, 6.78 and 23, respectively.
The corresponding values for `C=CC(=O)Nc1cc2c(Nc3ccc(F)c(Cl)c3)ncnc2cc1OCCCN1CCOCC1` [Canertinib] (top concentration 10000 nM) are 1.86, 12.6 and 2.26.
On to `CC(C)C[C@H](NC(=O)[C@H](CCc1ccccc1)NC(=O)CN1CCOCC1)C(=O)N[C@@H](Cc1ccccc1)C(=O)N[C@@H](CC(C)C)C(=O)[C@@]1(C)CO1` [Carfilzomib] (top concentration 1000 nM), for which the “selective drug sensitivity score” value was 5.16 with COG-LL-332h, 2.86 in the assay on MHH-CALL-3 and 2.56 in the assay on PEER.
The corresponding values for `O=C(c1ccc(F)c(F)c1Nc1ccc(I)cc1F)N1CC(O)([C@@H]2CCCCN2)C1` [Cobimetinib] (top concentration 1000 nM) are -3.08, 6.22 and -2.78.
The corresponding values for `COc1c(OCCCN2CCOCC2)ccc2c1N=C(NC(=O)c1cnc(N)nc1)N1CCN=C21` [Copanlisib] (top concentration 1000 nM) are 2.78, -0.62 and -5.82.
The corresponding values for `Cn1c(=O)n(-c2ccc(C(C)(C)C#N)cc2)c2c3cc(-c4cnc5ccccc5c4)ccc3ncc21` [Dactolisib] (top concentration 1000 nM) are 5.96, 3.26 and 5.06.
On to `O=C(/C=C/c1cccnc1)NCCCCC1CCN(C(=O)c2ccccc2)CC1` [Daporinad] (top concentration 1000 nM), for which the “selective drug sensitivity score” value is 17 in the assay with COG-LL-332h, 14.6 with MHH-CALL-3 and 8.76 in the assay on PEER.
As to `CC(=O)N(O)CCCCCNC(=O)CCC(=O)N(O)CCCCCNC(=O)CCC(=O)N(O)CCCCCN` [Deferoxamine] (top concentration 10000 nM), the results for the “selective drug sensitivity score” value with COG-LL-332h, with MHH-CALL-3 and with PEER were 10.4, -0.54 and 2.16, respectively.
The corresponding values for `Cc1cc(Nc2cc(N3CCN(C)CC3)nc(/C=C/c3ccccc3)n2)n[nH]1` [ENMD-2076] (top concentration 10000 nM) are 4.34, -2.76 and 7.14.
The corresponding values for `Cc1cnc(Nc2ccc(OCCN3CCCC3)cc2)nc1Nc1cccc(S(=O)(=O)NC(C)(C)C)c1` [Fedratinib] (top concentration 10000 nM) are -2.26, 2.54 and -0.16.
The corresponding values for `COc1ccc(-c2nc(N3CCOCC3)c3sc(CN(C)c4ncc(C(=O)NO)cn4)cc3n2)cn1` [Fimepinostat (CUDC-907)] (top concentration 10000 nM) are 1.08, 10.9 and 1.98.
On to `CCOC(=O)CCNc1cc(N2CCc3ccccc3CC2)nc(-c2ccccn2)n1` [GSK-J4] (top concentration 100000 nM), for which the entries for the “selective drug sensitivity score” value in the assay on COG-LL-332h, in the assay with MHH-CALL-3 and in the assay on PEER were -7.08, -13.2 and -5.48, respectively.
The corresponding values for `Cc1cc(Nc2cc(CN3CCOCC3)c3nc(C)c(Cc4ccc(Cl)cc4F)n3n2)n[nH]1` [Gandotinib] (top concentration 10000 nM) are 2.18, 1.18 and 8.68.
For the molecule `NC(=O)NO` [Hydroxyurea] (top concentration 1000000 nM), the results for the “selective drug sensitivity score” value in the assay on COG-LL-332h, with MHH-CALL-3 and with PEER were 12.5, -4.44 and 5.56, respectively.
Consider `Cc1ccc(NC(=O)c2ccc(CN3CCN(C)CC3)cc2)cc1Nc1nccc(-c2cccnc2)n1` [Imatinib] (top concentration 10000 nM), for which the “selective drug sensitivity score” value in the assay with COG-LL-332h is 10.2; with MHH-CALL-3, -0.44; in the assay with PEER, 12.
The corresponding values for `CC(C)NC[C@@H](C(=O)N1CCN(c2ncnc3c2[C@H](C)C[C@H]3O)CC1)c1ccc(Cl)cc1` [Ipatasertib] (top concentration 10000 nM) are 5.8, 0.2 and -1.6.
The corresponding values for `CCC(C)n1ncn(-c2ccc(N3CCN(c4ccc(OCC5COC(Cn6cncn6)(c6ccc(Cl)cc6Cl)O5)cc4)CC3)cc2)c1=O` (stereo not drawn) [Itraconazole] (top concentration 5000 nM) are 2.48, -4.32 and 0.88.
For `Cc1sc2c(c1C)C(c1ccc(Cl)cc1)=N[C@@H](CC(=O)OC(C)(C)C)c1nnc(C)n1-2` [JQ1] (top concentration 10000 nM), the results for the “selective drug sensitivity score” value in the assay with COG-LL-332h, with MHH-CALL-3 and in the assay with PEER were -3.08, 16 and -1.88, respectively.
The corresponding values for `CCNC(=O)c1noc(-c2cc(C(C)C)c(O)cc2O)c1-c1ccc(CN2CCOCC2)cc1` [Luminespib] (top concentration 1000 nM) are 7.1, 8.3 and -3.7.
The corresponding values for `O=C(c1cccc(Cl)c1F)N1CCN(Cc2cccc(Nc3nccs3)n2)CC1` [MK-8745] (top concentration 10000 nM) are 14, 7.1 and 9.8.
The corresponding values for `Cc1ccc(NC(=O)c2ccc(CN3CCN(C)CC3)cc2)cc1Nc1nc(-c2cccnc2)cs1` [Masitinib] (top concentration 10000 nM) are 5.52, -4.38 and 6.62.
For `CCN(CC)CCCC(C)Nc1c2ccc(Cl)cc2nc2ccc(OC)cc12` (stereo not drawn) [Mepacrine] (top concentration 50000 nM), the “selective drug sensitivity score” value is -0.4 in the assay with COG-LL-332h, -1.2 with MHH-CALL-3 and -5.9 in the assay with PEER.
The corresponding values for `COc1ccc(-c2ccc3ncc4c(c3c2)n(-c2ccc(N3CCNCC3)c(C(F)(F)F)c2)c(=O)n4C)cn1` [NVP-BGT226] (top concentration 1000 nM) are 5.02, 0.62 and 3.42.
The corresponding values for `COc1nc(N)nc2c1ncn2[C@@H]1O[C@H](CO)[C@@H](O)[C@@H]1O` [Nelarabine] (top concentration 10000 nM) are 2.78, -3.72 and -5.52.
The corresponding values for `Cc1cn(-c2cc(NC(=O)c3ccc(C)c(Nc4nccc(-c5cccnc5)n4)c3)cc(C(F)(F)F)c2)cn1` [Nilotinib] (top concentration 10000 nM) are 16.4, 0.5 and 18.1.
`NC(=O)c1cccc2cn(-c3ccc(C4CCCNC4)cc3)nc12` (stereo not drawn) [Niraparib] (top concentration 10000 nM): the “selective drug sensitivity score” value was 3.88 in the assay on COG-LL-332h, 10.7 in the assay with MHH-CALL-3 and -1.02 in the assay with PEER.
